Laboratory results as given in patent US20080044484A1, “Use of polymeric nanoparticles for vaccine delivery” (THE REGENTS OF THE UNIVERSITY OF CALIFORNIA, priority 2004, published 2008).

Experiments:
[1] = tested on: peptide-loaded MDA-MB-231 cells; test: Mechanisms of peptide loading: acid stripping, pronase, Brefeldin A, 51Cr-release; assay type: cell-based, human
Text: To distinguish between loading of the peptides into the cytosol and simple binding of these peptides to the surface MHC molecules several approaches were used. First, β2-microglobulin was removed from the surface of peptide-loaded tumor cells by acid stripping. […] Second, pronase was used for complete enzymatic digestion of HLA molecules on the cell surface after loading in order to be able to detect the appearance of new internally formed HLA-peptide complexes on the cell surface, but not pulsing of the cells. Third, Brefeldin A (BFA), a metabolite of the fungus Eupenicillium brefeldianum, was used which specifically blocks protein transport from the ER to Golgi apparatus.
These experiments confirmed that the antigenic peptides were introduced into the cytosol of the cells, resulting in a prolonged and more efficient antigen presentation.

[2] = tested on: K562-A2 cells pulsed with STEAP peptide; test: In vitro induction of STEAP peptide-specific CTL, LDH-release cytotoxicity assay; conditions: for Percent LDH released from K562-A2 pulsed with peptide: K562-A2 pulsed with corresponding STEAP peptide 2 hours at 37° C.; for Percent LDH released from K562-A2 pulsed with peptide / Percent LDH released from K562-A2: CTL specific for the peptide, 4-hour LDH-release assay; for Induction of peptide-specific CTL: in vitro immunization of PBMC; for Percent LDH released from K562-A2: non-pulsed K562-A2 targets
[3] = tested on: DU145 (HLA-A2−); test: LDH-release cytotoxicity assay of STEAP-specific CTL against HLA-A2-negative control cell line; assay type: cell-based, human; conditions: CTL specific for the peptide; 4-hour LDH-release assay
Method: (§1) It was tested whether the STEAP-derived peptides can induce potent CTL capable of recognizing and killing prostate cancer cells in vitro. CTL lines selected for their ability to lyse peptide-pulsed target cells were used as effectors in LDH-release cytotoxicity assays against the cancer cell lines. The HLA-A2+ cancer cell line LnCAP was used, with the HLA-A2−negative cancer cell line DU145 as a control (Table 29).

[4] = tested on: K562-A2 cells pulsed with STEAP peptide; test: Blocking of CTL lysis with antibodies BB7.2 / IVA12, LDH-release assay; assay type: cell-based, human; conditions: for Percent LDH released from K562-A2 pulsed +IVA12: anti-HLA class II antibody IVA12 added to peptide-pulsed targets before 4-hour LDH-release assay; for Percent LDH released from K562-A2 pulsed +BB7.2: anti-HLA-A2 antibody BB7.2 added to peptide-pulsed targets before 4-hour LDH-release assay
Text: As an additional control the anti-HLA class II antibody IVA12 was used. With these experiments, it was confirmed that the STEAP-specific CTL can recognize and kill target cells in a class I-restricted fashion (Table 30).

[5] = tested on: LnCap (HLA-A2+); test: LDH-release cytotoxicity assay of STEAP-specific CTL against prostate cancer cell line; assay type: cell-based, human; conditions: CTL specific for the peptide; 4-hour LDH-release assay
Method: as §1

[6] = tested on: ICP47-transfected cells MCF7; test: Functional blockade of TAP by ICP47, 51Cr-release from peptide-loaded cells; assay type: cell-based, human; conditions: CTL reactive against the corresponding HER2/neu peptide, 3 days after peptide loading, 6-hour assay
Text: Another aspect in these studies was to determine the mechanisms of enhancement of the antigen presentation by the fusion peptides in human tumor cell lines. Therefore, a new test system was developed utilizing the Herpes Simplex virus (HSV) protein ICP47. ICP47 is a cytoplasmic protein, which interferes with antigen presentation by physically associating with TAP within the cell and inhibiting peptide transport across the ER-membrane. By transfecting the ICP47 gene into several cancer cell lines a novel system for screening different fusion peptides for TAP-independent translocation of peptide antigens through the ER-membrane was generated.
The expression of these antigens was detected by ^51Cr-release assays.

[7] = tested on: T2 cells; test: IFNγ release by CTL (ELISA) after incubation with peptide-loaded T2 cells; assay type: cell-based, human; conditions: CTL elicited with the corresponding HER2/neu peptide, 20 h, 10^5 CTL/well
Method: In interferon gamma-release assays, 10^5 HER2/neu-specific CTL were co-incubated with 10^5 peptide-loaded T2 cells for 20 hours at 37° C. The concentrations of human interferon gamma in co-cultured supernatants were then determined by ELISA.

[8] = tested on: breast cancer cells MDA-MB-231; test: IFNγ release by CTL (ELISA) after incubation with peptide-loaded MDA-MB-231 cells; assay type: cell-based, human; conditions: CTL elicited with the corresponding HER2/neu peptide, 20 h, 10^5 CTL/well
Method: In interferon gamma release assays, 10^5 HER2/neu-specific CTL were co-incubated with 10^5 peptide-loaded tumor cells for 20 hours at 37° C. The concentration of human interferon gamma in co-cultured supernatants was then determined by ELISA.

| Compound | Blocking of recognition of peptide-loaded tumor cells by HER2/neu-specific CTL [1] | Percent LDH released from K562-A2 pulsed with peptide [2] | Induction of peptide-specific CTL [2] | Percent LDH released from K562-A2 [2] | Percent LDH released from DU145 (HLA-A2−) [3] | Percent LDH released from K562-A2 pulsed +IVA12 [4] | Percent LDH released from K562-A2 pulsed +BB7.2 [4] | Percent LDH released from LnCap (HLA-A2+) [5] | Percent 51Cr Released From ICP47-transfected MCF7 cells loaded with the construct ([6]; E:T 20:1) | Percent 51Cr Released From ICP47-transfected MCF7 cells loaded with the construct ([6]; E:T 40:1) | Release of IFNγ by CTL, T2 cells loaded with the peptide ([7]; Day 1 after peptide loading) | Release of IFNγ by CTL, T2 cells loaded with the peptide ([7]; Day 3 after peptide loading) | Release of IFNγ by CTL, T2 cells loaded with the peptide ([7]; Day 5 after peptide loading) | Release of IFNγ by CTL, T2 cells loaded with the peptide ([7]; Day 8 after peptide loading) | Release of IFNγ by CTL, MDA-MB-231 cells loaded with the peptide ([8]; Day 1 after peptide loading) | Release of IFNγ by CTL, MDA-MB-231 cells loaded with the peptide ([8]; Day 3 after peptide loading) | Release of IFNγ by CTL, MDA-MB-231 cells loaded with the peptide ([8]; Day 5 after peptide loading) | Release of IFNγ by CTL, MDA-MB-231 cells loaded with the peptide ([8]; Day 8 after peptide loading) |
| --- | --- | --- | --- | --- | --- | --- | --- | --- | --- | --- | --- | --- | --- | --- | --- | --- | --- | --- |
| C[C@H]1CCC/C=C/[C@@H]2C[C@H](O)C[C@H]2[C@H](O)/C=C/C(=O)O1 [Brefeldin A] | specifically blocks the recognition |  |  |  |  |  |  |  |  |  |  |  |  |  |  |  |  |  |
| YLWGVIAAI [STEAP130-138 - 3W] |  | 63% | induced potent peptide-specific CTL | 4% | −2% | 64% | 5% | 69% |  |  |  |  |  |  |  |  |  |  |
| M R IISAVVGIL A A V C S A (MRIISAVVGILAAVCSA) [HER654-662-IN-ES] |  |  |  |  |  |  |  |  | 2% | 2% | 2929 pg/mL | 2773 pg/mL | 1699 pg/mL | 671 pg/mL | 2727 pg/mL | 2666 pg/mL | 1708 pg/mL | 667 pg/mL |
| MRYMILGLLALAAVCSA IISAVVGIL (MRYMILGLLALAAVCSAIISAVVGIL) [ES-HER654-662] |  |  |  |  |  |  |  |  | 2% | 3% | 2667 pg/mL | 2518 pg/mL | 1245 pg/mL | 581 pg/mL | 2767 pg/mL | 2622 pg/mL | 1445 pg/mL | 578 pg/mL |
| LLSFFFAVL (listed as Homo sapiens) [STEAP166-174] |  | 43% | induced potent peptide-specific CTL | 3% | 4% | 47% | 11% | 65% |  |  |  |  |  |  |  |  |  |  |
| MTNKCLLQIALLLCFSTTALS IISAVVGIL (MTNKCLLQIALLLCFSTTALSIISAVVGIL) [IS-HER654-662] |  |  |  |  |  |  |  |  | 3% | 5% | 2590 pg/mL | 1990 pg/mL | 1557 pg/mL | 615 pg/mL | 2678 pg/mL | 1974 pg/mL | 1604 pg/mL | 628 pg/mL |
| FLPGVIAAI [STEAP130-138 - 1F] |  | 75% | induced potent peptide-specific CTL | 4% | −1% | 69% | 2% | 73% |  |  |  |  |  |  |  |  |  |  |
